US20240262835A1, “PRMT5 INHIBITING COMPOUNDS AND USES THEREOF” (ANTENGENE DISCOVERY LIMITED, priority 2023, published 2024)
Read-outs that look alike come from different tables or passages of the source. One block for each compound: values may come before it.

Columns and labels:
PRMT5/MEP50 complex = PRMT5/MEP50 complex (Homo sapiens (Human), UniProt O14744); experiment: PRMT5/MEP50 HotSpot methyltransferase assay (with 100 nM MTA); assay type: biochemical; conditions: histone H2A substrate, 1 μM 3H-SAM
Sequence of PRMT5/MEP50 complex (O14744 whole entry, species assumed): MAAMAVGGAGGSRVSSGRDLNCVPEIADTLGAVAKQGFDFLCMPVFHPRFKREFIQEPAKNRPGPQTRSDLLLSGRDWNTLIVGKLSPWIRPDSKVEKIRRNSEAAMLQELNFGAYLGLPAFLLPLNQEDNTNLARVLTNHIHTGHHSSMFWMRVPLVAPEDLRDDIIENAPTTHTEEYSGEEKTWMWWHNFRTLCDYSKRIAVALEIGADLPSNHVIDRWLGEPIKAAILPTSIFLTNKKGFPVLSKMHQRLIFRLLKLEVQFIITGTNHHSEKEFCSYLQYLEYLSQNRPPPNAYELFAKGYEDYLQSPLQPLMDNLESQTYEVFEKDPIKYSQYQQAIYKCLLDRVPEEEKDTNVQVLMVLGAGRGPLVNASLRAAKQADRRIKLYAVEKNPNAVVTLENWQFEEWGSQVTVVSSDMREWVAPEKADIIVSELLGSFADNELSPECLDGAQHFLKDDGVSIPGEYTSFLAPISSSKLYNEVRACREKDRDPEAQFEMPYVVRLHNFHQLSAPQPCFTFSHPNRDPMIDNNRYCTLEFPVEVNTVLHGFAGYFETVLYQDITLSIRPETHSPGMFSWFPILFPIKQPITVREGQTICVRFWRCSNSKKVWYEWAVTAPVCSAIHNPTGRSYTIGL
Sequence of PRMT5/MEP50 complex (Q9BQA1 whole entry partner, species assumed): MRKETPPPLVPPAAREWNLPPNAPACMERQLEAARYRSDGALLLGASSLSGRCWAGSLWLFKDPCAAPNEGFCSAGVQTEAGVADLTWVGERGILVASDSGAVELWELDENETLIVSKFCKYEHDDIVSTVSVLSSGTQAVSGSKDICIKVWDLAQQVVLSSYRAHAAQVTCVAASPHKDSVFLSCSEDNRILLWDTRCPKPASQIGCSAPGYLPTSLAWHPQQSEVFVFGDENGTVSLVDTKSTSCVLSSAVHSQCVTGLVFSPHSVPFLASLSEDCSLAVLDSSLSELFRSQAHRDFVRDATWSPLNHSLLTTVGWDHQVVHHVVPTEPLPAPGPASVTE
Experimental: The assay used recombinant full-length histone H2A as the substrate of PRMT5. Enzymatic transfer of the tritiated methyl group from S-adenosyl-L-[methyl-3H]methionine (3H-SAM) to the histone H2A protein generated a radiolabeled histone H2A by measuring in a scintillation counter to determine the activity of PRMT5 enzyme in the presence and absence of compound. The assay reactions were conducted in the presence of 100 nM MTA. Briefly, compounds were solubilized in 100% DMSO at the highest concentration of 10 mM. […] Control samples lacking compound, PRTM5/MEP50 complex or various reaction components also were prepared and processed in parallel with compound test samples. SAH was used as a positive control for assay validation. To measure PRMT5 inhibitory activity, 1 nM PRTM5/MEP50 complex was preincubated with test compound in assay buffer containing 5 μM full-length histone H2A for 15 minutes at room temperature. The enzymatic reaction was initiated by adding 1 μM 3H-SAM (final concentration) and the mixture was incubated at 30° C. for 1 hour. The reaction was stopped and transferred to filter paper for detection. The amount of tritiated H2A in each sample was determined using a scintillation counter. The IC50 value for each compound was calculated from each 10-point dose-response curve for samples using GraphPad Prism software.

[1] = tested on: HCT116 parental (wild type) cells; experiment: HCT116 cell proliferation assay (CTG), parental cells; assay type: cell-based, human; conditions: Cell Titer-Glo
Experimental: (§1) Control samples were analyzed in parallel.
(§2) On Day 0, 150 HCT116 parental or HCT116 homozygous MTAP knockout cells were seeded in 96-well plates in McCoy's 5A medium containing 10% fetal bovine serum and pen/strep. And the cells were incubated overnight at 37° C. and 5% CO2.
(§3) On Day 1, cells were treated with 9-point serial dilution of compound, using a top concentration of 50 μM, 1:5 serial dilution steps and, a DMSO-only control. And cells were incubated for 6 days.
(§4) On Day 7, cell viability was measured using a CTG assay Kit (Cell Titer-Glo; Promega, catalog no.: G7573) in accordance with the manufacturer's instructions. Assays plates were read on a EnVision™ Multilabel Reader using the Ultra-Sensitive luminescence model. The data were analyzed by GraphPad Prism 5.0 software, and the dose-effect curve was obtained by fitting the data using nonlinear S-curve regression, from which the IC50 value was calculated.

[2] = tested on: HCT116 homozygous MTAP knockout cells; experiment: HCT116 cell proliferation assay (CTG), MTAP knockout cells; assay type: cell-based, human; conditions: Cell Titer-Glo
Experimental: as §1, §2, §3, §4

PRMT5/MEP50 = PRMT5/MEP50 (Homo sapiens (Human), UniProt O14744); experiment: MTase-Glo methyl transferase assay (PRMT5 inhibition); assay type: biochemical; conditions: 50 nM PRMT5/MEP50, 25 μM SAM, 5 μM Histone H4 peptide (1-21), read-out: IC50 for PRMT5 inhibiting
Sequence of PRMT5/MEP50 (O14744 whole entry): as the sequence (O14744 whole entry, species assumed) above
Sequence of PRMT5/MEP50 (Q9BQA1 whole entry partner): as the sequence (Q9BQA1 whole entry partner, species assumed) above
Experimental: The PRMT5 inhibitory activity of test compounds was determined using the MTase-Glo™ assay (Promega), which monitors the product (S-adenosyl homocysteine or SAH) of methyltransferase reactions. The PRMT5 MTase-Glo assays were conducted in a 384-well white ProxiPlate (PerkinElmer, catalog no.: 6008280) in a total volume of 12 μL. The PRMT5 enzymatic reaction (in 4 μL) contained 50 nM PRMT5/MEP50 (Reaction Biology Corp, catalog no.: HMT-22-148), 25 μM S-adenosyl methionine (SAM, Promega), 5 μM Histone H4 peptide (1-21) (BPS Bioscience, catalog no.: 52018-2) and five-fold serially diluted compounds in a reaction buffer of 50 mM Tris (pH 8.0), 50 mM NaCl, 0.01% Tween 20, 0.01% BSA, and 1 mM DTT. The test compounds were pre-incubated with PRMT5/MEP50 and Histone H4 peptide for 20 minutes at room temperature before the addition of SAM to initiate the PRMT5 reaction. The reaction was allowed to proceed for 1 hour at 37° C. and was terminated by 2 μL of 3× MTase-Glo™ Reagent (Promega) and 150 μM EPZ015666 (Selleck, catalog no.: 1616391-65-1). After a 30-minute incubation at room temperature, 6 μL of MTase-Glo™ Detection Solution (Promega) was added and the plate was incubated at room temperature for an additional 30 minutes. The light signal corresponding to the amount of SAH produced by the PRMT5 reaction was subsequently measured using an Envision multimode reader (PerkinElmer). IC50 and Ki values were obtained by analyzing dose-response curves using GraphPad Prism.

[3] = Hepatic metabolic stability (HMS) assay, dog hepatocytes; conditions: dog, cryopreserved hepatocytes
[4] = tested on: cryopreserved hepatocytes; experiment: as above; conditions: dog, hepatocytes
[5] = Hepatic metabolic stability (HMS) assay, rat hepatocytes; conditions: rat, cryopreserved hepatocytes
Experimental: 1) 10 mM test compounds were provided.
(§5) 2) 30 mM positive control stock solutions: Dissolved accurate amount of positive control compounds in dimethyl sulfoxide (DMSO).
(§6) 3) 1000× Stock Solution: Diluted 10 mM test compounds and 30 mM positive control compounds to 1 mM and 3 mM with DMSO in 96-well plates.
(§7) 4) 100× Dosing Solution: Diluted 1 mM test compounds and 3 mM positive control compounds to 100 μM and 300 μM dosing solutions with ACN.
(§8) 5) Preparation of 0.5×10^6/mL cells suspension: cryopreserved cells were thawed, isolated and suspended in Incubation Medium, then diluted with pre-warmed Incubation Medium to 0.5×10^6 cells/mL.
(§9) 6) Add 198 μL of pre-warmed cell suspensions in 96-well plates.
(§10) 7) Preparation of Quenching Plate: Transfer 125 μL of stop solution in a set of pre-labeled 96-well plates.
(§11) 8) Spike 2 μL dosing solution to each well of 96-well plates in duplicate.
(§12) 9) For TO Samples, mix to achieve a homogenous suspension for about 1 min, then immediately transfer 25 μL of each sample into well containing 125 μL of ice-cold stop solution followed by mixing.
(§13) 10) Incubate all plates at 37° C. in a 95% humidified incubator at 5% CO2 to start the reactions with constant shaking.
(§14) 11) At 15, 30, 60 and 90 min, mix samples and then transfer 25 μL of each sample at each time point to well containing 125 μL of ice-cold stop solution followed by mixing.
(§15) 12) Medium Control (MC) sample plates (labeled as TO-MC and T90-MC) are prepared in the same way as cell incubation except that medium was used instead of cell suspension.
(§16) 13) At each corresponding time point, stop the reactions by removing the plates from incubator and mixing with 125 μL of ice-cold stop solution.
(§17) 14) Vortex the plates immediately on a plate shaker at 600 rpm for 10 minutes. Then, centrifuge all sample plates at 3220×g for 20 min at 4° C.
(§18) 15) After centrifugation, 80 μL/well of supernatant in the sample plates are transferred to another set of pre-labeled 96-well plates which containing 240 μL of ultra pure water according to the plate map.
(§19) 16) Analytical plates are sealed and store at 4° C. until LC-MS/MS analysis.
(§20) The remaining percents of test articles after incubation were calculated by the follow equations:
(§21) Use the following equation of first order kinetics to calculate T1/2 and CLint:

[6] = tested on: cryopreserved hepatocytes; experiment: as above; conditions: rat, hepatocytes
Experimental: 1) 10 mM test compounds were provided.
as §5, §6, §7, §8, §9, §10, §11, §12, §13, §14, §15, §16, §17, §18, §19, §20, §21

[7] = Hepatic metabolic stability (HMS) assay, human hepatocytes; conditions: human, cryopreserved hepatocytes
[8] = tested on: cryopreserved hepatocytes; experiment: as above; conditions: human, hepatocytes
[9] = Hepatic metabolic stability (HMS) assay, cynomolgus monkey hepatocytes; conditions: cynomolgus monkey, cryopreserved hepatocytes
Experimental: 1) 10 mM test compounds were provided.
as §5, §6, §7, §8, §9, §10, §11, §12, §13, §14, §15, §16, §17, §18, §19, §20, §21

[10] = tested on: cryopreserved hepatocytes; experiment: as above; conditions: cynomolgus monkey, hepatocytes
Experimental: 1) 10 mM test compounds were provided.
as §5, §6, §7, §8, §9, §10, §11, §12, §13, §14, §15, §16, §17, §18, §19, §20, §21

[11] = Hepatic metabolic stability (HMS) assay, mouse hepatocytes; conditions: mouse, cryopreserved hepatocytes
Experimental: 1) 10 mM test compounds were provided.
as §5, §6, §7, §8, §9, §10, §11, §12, §13, §14, §15, §16, §17, §18, §19, §20, §21

[12] = tested on: cryopreserved hepatocytes; experiment: as above; conditions: mouse, hepatocytes
Experimental: 1) 10 mM test compounds were provided.
as §5, §6, §7, §8, §9, §10, §11, §12, §13, §14, §15, §16, §17, §18, §19, §20, §21

in vitro [13] = conditions: human, microsomes
[14] = In vivo pharmacokinetics assay in mice via IV and PO; parameters: species or system ICR mice; conditions: plasma; for Cmax: read-out: Cmax; for AUC0-t: read-out: AUC0-t
Experimental: Pharmacokinetics assay for test compounds was performed in mice via IV and PO.
Test compound solution was prepared on the day of administration.
Solvent: IV+PO: 5% DMSO+10% Soultol+85% H2O or saline
Species: ICR mice; SPF level.
Source: Beijing Vital River Laboratory Animal Technology Co., Ltd.
Animal selection: Males. No random grouping
Weighed before dosing, calculated dosage according to body weight. For Groups 1-3, the drug was administered intravenously or intragastrically. For Group 4, the drug administered intragastrically.
For Groups 1-3, at 0.083 h, 0.25 h, 0.5 h, 1 h, 2 h, 4 h, 6 h, 8 h, 24 h, after administration. For Group 4, at 2 h and 4 h after administration.
Blood was collected through the cheeks. For each sample, about 0.05 mL of blood was collected and was added heparin sodium or EDTA-2K as anticoagulant, and was placed on wet ice.
The blood samples were collected and placed on ice and was centrifuged within 1 hour (centrifugation: 6000 g, 3 minutes, 2-8° C.) to separate plasma. Plasma samples were stored in a −80° C. refrigerator prior to analysis.
The pharmacokinetic parameters were calculated using Phoenix WinNonlin8.2.0 based on the blood concentration data at different time points, and AUC0-t, AUC0-∞, MRT0-∞, Cmax, Tmax, and T1/2 and mean values and standard deviations thereof were provided.

[15] = Liver microsome metabolic stability (LMS) assay, mouse; conditions: mouse, liver microsomes
[16] = target: hERG potassium ion channel (Homo sapiens (Human), UniProt Q12809); experiment: hERG potassium ion channel inhibition assay (automated patch-clamp, CHO-hERG cells); assay type: cell-based; conditions: Qpatch, highest test concentration 40.00 μM
Sequence of hERG potassium ion channel (Q12809 whole entry): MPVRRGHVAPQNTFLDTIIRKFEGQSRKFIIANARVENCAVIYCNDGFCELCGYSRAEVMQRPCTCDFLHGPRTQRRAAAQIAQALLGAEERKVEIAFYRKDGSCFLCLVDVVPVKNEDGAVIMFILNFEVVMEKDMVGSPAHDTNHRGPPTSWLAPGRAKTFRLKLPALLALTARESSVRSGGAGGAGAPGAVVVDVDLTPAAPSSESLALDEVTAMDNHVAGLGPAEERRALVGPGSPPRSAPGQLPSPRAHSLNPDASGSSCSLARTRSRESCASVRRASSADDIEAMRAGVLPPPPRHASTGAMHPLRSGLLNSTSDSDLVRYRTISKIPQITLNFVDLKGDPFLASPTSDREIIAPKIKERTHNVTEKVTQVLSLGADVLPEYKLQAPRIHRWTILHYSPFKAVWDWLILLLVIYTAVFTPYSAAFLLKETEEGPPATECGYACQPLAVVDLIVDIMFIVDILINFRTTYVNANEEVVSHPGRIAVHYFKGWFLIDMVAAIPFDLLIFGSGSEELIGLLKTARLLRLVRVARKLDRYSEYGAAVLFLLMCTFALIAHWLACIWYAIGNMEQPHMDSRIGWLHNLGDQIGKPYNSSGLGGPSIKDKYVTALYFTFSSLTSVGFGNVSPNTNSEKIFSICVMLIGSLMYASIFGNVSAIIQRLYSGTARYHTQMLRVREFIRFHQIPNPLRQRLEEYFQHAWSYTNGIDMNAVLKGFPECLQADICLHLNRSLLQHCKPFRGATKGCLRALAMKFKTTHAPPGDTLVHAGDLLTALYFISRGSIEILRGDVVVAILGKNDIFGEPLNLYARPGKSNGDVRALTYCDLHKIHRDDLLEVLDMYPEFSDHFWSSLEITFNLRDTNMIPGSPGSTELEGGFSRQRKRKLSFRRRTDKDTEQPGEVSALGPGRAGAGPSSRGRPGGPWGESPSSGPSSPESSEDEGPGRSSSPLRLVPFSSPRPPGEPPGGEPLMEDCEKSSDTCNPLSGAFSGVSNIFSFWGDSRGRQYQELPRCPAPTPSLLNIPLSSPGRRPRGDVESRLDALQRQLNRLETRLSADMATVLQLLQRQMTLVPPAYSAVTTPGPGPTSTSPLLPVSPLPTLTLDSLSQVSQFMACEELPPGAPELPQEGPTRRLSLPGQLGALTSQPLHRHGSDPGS
Experimental: Drug-hERG interaction was measured by automated patch-clamp methods, with cisapride as positive control.
1.1 CHO-hERG cells were cultured in 175 cm^2 culture bottle. After the cell density grew to 60-80%, the culture medium was removed, washed with 7 mL of phosphate buffered saline (PBS), and then digested with 3 mL Detachin.
1.2 After the digestion was complete, 7 mL culture solution was added for neutralization, and then centrifuged, the clear solution was sucked, and 5 mL culture solution was added for re-suspension to ensure the cell density was 2˜5×10^6/mL.
The process of single-cell high-impedance sealing and whole-cell pattern formation was all automatically completed by Qpatch instrument. After obtaining whole-cell recording mode, the cell was pinching at −80 millivolts. Before giving a 5-second +40 millivolt depolarization stimulus, a 50-millisecond pre-voltage of −50 millivolts was given first, and then repolarized to −50 millivolts for 5 seconds. Go back to −80 millivolts. This voltage stimulation was applied every 15 seconds, recorded for 2 minutes, then extracellular fluid was given and recorded for 5 minutes, and then the administration process began. The concentration of test compound was given from the lowest test concentration for 2.5 minutes per test concentration. After continuous administration of all concentrations, the positive control 3 μM cisapride was given. At least 2 cells were tested for each concentration (n≥2).
4.1 The compound mother liquor was diluted with DMSO, and 10 μL compound stock solution was added to 20 μL DMSO solution, which was continuously 3-fold diluted to 6 DMSO-concentrations.
4.2 4 μL of test compounds in 6 DMSO-concentrations were added to 396 μL extracellular solution and were 100-fold diluted to 6 intermediate concentrations. Then, 80 μL of test compounds in 6 intermediate concentrations were added to 320 μL extracellular solution and were 5-fold diluted to the final concentration to be tested.
4.3 The highest test concentration was 40.00 μM, and six test concentrations were 40.00, 13.33, 4.44, 1.48, 0.49, 0.16 μM, respectively.
4.5 Entire dilution process for test compound preparation was performed by Bravo instrument.
The experimental data were analyzed by GraphPad Prism 5.0 software.

in vitro [17] = conditions: cynomolgus monkey, microsomes
[18] = Liver microsome metabolic stability (LMS) assay, human; conditions: human, microsomes
[19] = rat, microsomes, 1 μM
in vitro [20] = conditions: dog, microsomes
[21] = Homo sapiens, HCT-116, 6 days treatment

IC50 (PRMT5/MEP50 complex): 198 nM
IC50 ([2]; 6 days treatment): 97 nM
IC50 (PRMT5/MEP50): 104 nM
Compound: Cc1ncn2c1c(N)nc1ccc(C(=O)N(Cc3ccc(C(F)(F)F)cn3)[C@H](C)c3ncccn3)cc12 [Compound 8]
IC50 ([1]; 6 days treatment): 146 nM

IC50 (PRMT5/MEP50 complex): 321 nM
IC50 ([2]; 6 days treatment): 72 nM
IC50 (PRMT5/MEP50): 101 nM
Compound: Cc1nc(C)n2c1c(N)nc1ccc(C(=O)N(Cc3ccc(C(F)(F)F)cn3)[C@H](C)c3ncccn3)cc12 [Compound 9]
IC50 ([1]; 6 days treatment): 1160 nM

IC50 (PRMT5/MEP50 complex): 91 nM
IC50 ([2]; 6 days treatment): 77 nM
IC50 (PRMT5/MEP50): 91 nM
Compound: Cc1ncc2c(N)nc3ccc(C(=O)N(Cc4ccc(C(F)(F)F)cn4)[C@H](C)c4ncccn4)cc3n12 [Compound 7]
IC50 ([1]; 6 days treatment): 961 nM

Continued, compound first:

Compound: O=c1ccc2ccc(O)cc2o1 [Ref. 2, 7-Hydroxycoumarin, reference compound]
CLint scaled at 3 μM [3]: 3270 mL/min/kg
half-life at 3 μM [3]: 2.9 min
CLint (hep) D [4]: 475.1 μL/min/10^6
CLint scaled at 3 μM [5]: 3170 mL/min/kg
half-life at 3 μM [5]: 2 min
CLint (hep) R [6]: 678.0 μL/min/10^6
CLint scaled at 3 μM [7]: 1020 mL/min/kg
half-life at 3 μM [7]: 3 min
CLint (hep) H [8]: 367.6 μL/min/10^6
CLint scaled at 3 μM [9]: 2360 mL/min/kg
half-life at 3 μM [9]: 2.1 min
CLint (hep) C [10]: 655.8 μL/min/10^6
CLint scaled at 3 μM [11]: 7220 mL/min/kg
half-life at 3 μM [11]: 2.3 min
CLint (hep) M [12]: 608.1 μL/min/10^6

Compound: CN(C(=O)c1cc2c(cn1)nc(N)c1cncn12)[C@@H]1COc2cc(C(F)(F)F)ccc21 [Compound 14]
half-life at 1 μM (in vitro [13]): > 145 min
IC50 [1, 21]: 6270 nM
C8 h ([14]; PO 30 mg/kg): 3833 ng/mL
C24 h ([14]; PO 30 mg/kg): 574 ng/mL
C8 h ([14]; PO 50 mg/kg): 6927 ng/mL
C24 h ([14]; PO 50 mg/kg): 615 ng/mL
Cmax ([14]; male, ICR, mouse, PO 30 mg/kg): 7500 ng/mL
Cmax ([14]; male, ICR, mouse, PO 50 mg/kg): 9920 ng/mL
clearance ([14]; male, ICR, mouse, IV 1.0 mg/kg): 7.62 mL/min/kg
half-life ([14]; male, ICR, mouse, PO 30 mg/kg): 358 min
AUC0-t ([14]; male, ICR, mouse, PO 30 mg/kg): 81.1 µg·h/mL
half-life ([14]; male, ICR, mouse, PO 50 mg/kg): 300 min
AUC0-t ([14]; male, ICR, mouse, PO 50 mg/kg): 123 µg·h/mL
half-life at 1 μM [15]: 132 min
IC50 [2, 21]: 70 nM
IC50 [16]: 17900 nM
IC50 (PRMT5/MEP50): 47 nM

Compound: O=C(O)Cc1ccccc1Nc1c(Cl)cccc1Cl [Ref. 5, Diclofenac]
CLint scaled at 1 μM (in vitro [17]): < 13 mL/min/kg
half-life at 1 μM (in vitro [17]): > 145 min
microsomal CLint at 1 μM (in vitro [17]): < 9.6 µL/min/mg
half-life at 1 μM (in vitro [13]): 6.7 min
microsomal CLint at 1 μM (in vitro [13]): 206 µL/min/mg
CLint scaled at 1 μM [18]: 185 mL/min/kg
CLint (liver) R [19]: 233.1 mL/min/kg
CLint scaled at 1 μM (in vitro [20]): < 13.8 mL/min/kg
half-life at 1 μM (in vitro [20]): > 145 min
microsomal CLint at 1 μM (in vitro [20]): < 9.6 µL/min/mg
